Test results reported in US9796700B2 (Celgene CAR LLC, priority 2013, dated 2017).

Molecular target: Erk1 (Homo sapiens (Human), UniProt P27361)
Test: Protein Mass Modification Assay (intact protein MALDI)
Type: binding
Summary of the method: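 Percent covalent modification comes from the intact-protein MALDI centroid mass shift, treated versus control, divided by compound MW. Before analysis, human Erk1 was exposed to compound at 10-fold excess over protein for 60 min at room temperature.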

Erk1, sequence (P27361 whole entry, looked up): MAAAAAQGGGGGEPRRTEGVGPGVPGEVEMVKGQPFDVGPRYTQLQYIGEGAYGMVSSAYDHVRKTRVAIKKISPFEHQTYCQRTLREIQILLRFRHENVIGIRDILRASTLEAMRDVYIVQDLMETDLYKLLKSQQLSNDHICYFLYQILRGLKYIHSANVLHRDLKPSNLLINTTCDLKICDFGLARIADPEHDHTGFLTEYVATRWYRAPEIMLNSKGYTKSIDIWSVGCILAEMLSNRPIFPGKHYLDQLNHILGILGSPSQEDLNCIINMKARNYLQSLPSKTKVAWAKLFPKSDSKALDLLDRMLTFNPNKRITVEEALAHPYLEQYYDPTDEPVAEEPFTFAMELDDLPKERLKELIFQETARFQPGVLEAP

SMILES | ERK1 Mass Mod (%)
C=CC(=O)Nc1cc(OC)ccc1Nc1nc(Nc2ccc3c(c2)CC(=O)N3CC)ncc1Cl [Compound I-166, N-(2-((5-chloro-2-((1-ethyl-2-oxoindolin-5-yl)amino)pyrimidin-4-yl)amino)-5-methoxyphenyl)acrylamide] | E (provided a mass modification of ≧70%)
C=CC(=O)Nc1ccccc1Nc1nc(Nc2ccc(N(CCCN)C(C)=O)cc2OC)ncc1Cl [Compound I-167, N-(2-((2-((4-(N-(3-aminopropyl)acetamido)-2-methoxyphenyl)amino)-5-chloropyrimidin-4-yl)amino)phenyl)acrylamide] | E (provided a mass modification of ≧70%)
C=CC(=O)Nc1ccccc1Nc1nc(Nc2ccc(N(CCN)C(C)=O)cc2OC)ncc1Cl [Compound I-168, N-(2-((2-((4-(N-(2-aminoethyl)acetamido)-2-methoxyphenyl)amino)-5-chloropyrimidin-4-yl)amino)phenyl)acrylamide] | E (provided a mass modification of ≧70%)
C=CC(=O)Nc1ccccc1Nc1nc(Nc2ccc(N(CCCNC(=O)OC(C)(C)C)C(C)=O)cc2C(F)(F)F)ncc1Cl [Compound I-169, tert-butyl (3-(N-(4-((4-((2-acrylamidophenyl)amino)-5-chloropyrimidin-2-yl)amino)-3-(trifluoromethyl)phenyl)acetamido)propyl)carbamate] | E (provided a mass modification of ≧70%)
C=CC(=O)Nc1ccccc1Nc1nc(Nc2ccc(N(CCCNC(=O)OC(C)(C)C)C(C)=O)cc2OC)ncc1Cl [Compound I-173] | E (provided a mass modification of ≧70%)
C=CC(=O)Nc1ccccc1Nc1nc(Nc2ccc(N(CCNC(=O)OC(C)(C)C)C(C)=O)cc2OC)ncc1Cl [Compound I-174, tert-butyl (2-(N-(4-((4-((2-acrylamidophenyl)amino)-5-chloropyrimidin-2-yl)amino)-3-methoxyphenyl)acetamido)ethyl)carbamate] | E (key: E: provided a mass modification of ≧70%; F: provided a mass modification of 31-69%; G: proived a mass modification ≦30%)
C=CC(=O)Nc1cc(OC)ccc1Nc1nc(Nc2ccc(N(CC)C(C)=O)cc2OC)ncc1Cl [Compound I-175, N-(2-((5-chloro-2-((4-(N-ethylacetamido)-2-methoxyphenyl)amino)pyrimidin-4-yl)amino)-5-methoxyphenyl)acrylamide] | E (provided a mass modification of ≧70%)
C=CC(=O)Nc1cc(OC)ccc1Nc1nc(Nc2ccc(N(CC)C(C)=O)cc2C(F)(F)F)ncc1Cl [Compound I-176, N-(2-((5-chloro-2-((4-(N-ethylacetamido)-2-(trifluoromethyl)phenyl)amino)pyrimidin-4-yl)amino)-5-methoxyphenyl)acrylamide] | E (provided a mass modification of ≧70%)
C=CC(=O)Nc1ccccc1Nc1nc(Nc2ccc(N3CCC[C@H]3C(N)=O)cc2C#N)ncc1Cl [Compound I-177, (S)-1-(4-((4-((2-acrylamidophenyl)amino)-5-chloropyrimidin-2-yl)amino)-3-cyanophenyl)pyrrolidine-2-carboxamide] | E (provided a mass modification of ≧70%)
C=CC(=O)Nc1cc(OC)ccc1Nc1nc(Nc2ccc(N3CCC[C@H]3C(N)=O)cc2C#N)ncc1Cl [Compound I-178, (S)-1-(4-((4-((2-acrylamido-4-methoxyphenyl)amino)-5-chloropyrimidin-2-yl)amino)-3-cyanophenyl)pyrrolidine-2-carboxamide] | E (provided a mass modification of ≧70%)
C=CC(=O)Nc1ccccc1Nc1nc(Nc2ccc(N3CCC[C@@H]3C(N)=O)cc2C#N)ncc1Cl [Compound I-179, (R)-1-(4-((4-((2-acrylamidophenyl)amino)-5-chloropyrimidin-2-yl)amino)-3-cyanophenyl)pyrrolidine-2-carboxamide] | E (provided a mass modification of ≧70%)
C=CC(=O)Nc1cc(OC)ccc1Nc1nc(Nc2ccc(N3CCC[C@@H]3C(N)=O)cc2C#N)ncc1Cl [Compound I-180, (R)-1-(4-((4-((2-acrylamido-4-methoxyphenyl)amino)-5-chloropyrimidin-2-yl)amino)-3-cyanophenyl)pyrrolidine-2-carboxamide] | E (provided a mass modification of ≧70%)
C=CC(=O)Nc1cc(OC)ccc1Nc1nc(Nc2ccc(N3CCC[C@@H]3CO)cc2C#N)ncc1Cl [Compound I-181, (R)—N-(2-((5-chloro-2-((2-cyano-4-(2-(hydroxymethyl)pyrrolidin-1-yl)phenyl)amino)pyrimidin-4-yl)amino)-5-methoxyphenyl)acrylamide] | E (provided a mass modification of ≧70%)
C=CC(=O)Nc1ccccc1Nc1nc(Nc2ccc(NC(=O)COC(C)=O)cc2OC)ncc1Cl [Compound I-183, 2-((4-((4-((2-acrylamidophenyl)amino)-5-chloropyrimidin-2-yl)amino)-3-methoxyphenyl)amino)-2-oxoethyl acetate] | E (provided a mass modification of ≧70%)
C=CC(=O)Nc1ccccc1Nc1nc(Nc2ccc(NS(C)(=O)=O)cc2OC)ncc1Cl [Compound I-185, N-(2-((5-chloro-2-((2-methoxy-4-(methylsulfonamido)phenyl)amino)pyrimidin-4-yl)amino)phenyl)acrylamide] | E (provided a mass modification of ≧70%)
C=CC(=O)Nc1ccccc1Nc1nc(Nc2ccc(NC(=O)CO)cc2OC)ncc1Cl [Compound I-186, N-(2-((5-chloro-2-((4-(2-hydroxyacetamido)-2-methoxyphenyl)amino)pyrimidin-4-yl)amino)phenyl)acrylamide] | E (provided a mass modification of ≧70%)
C=CC(=O)Nc1ccccc1Nc1nc(Nc2cc(C(=O)NOCCO)ccc2OC)ncc1Cl [Compound I-194, 3-((4-((2-acrylamidophenyl)amino)-5-chloropyrimidin-2-yl)amino)-N-(2-hydroxyethoxy)-4-methoxybenzamide] | E (provided a mass modification of ≧70%)
C=CC(=O)Nc1ccccc1Nc1nc(Nc2cc(C(=O)NOC)ccc2C#N)ncc1Cl [Compound I-195, 3-((4-((2-acrylamidophenyl)amino)-5-chloropyrimidin-2-yl)amino)-4-cyano-N-methoxybenzamide] | E (provided a mass modification of ≧70%)
C=CC(=O)N(C)c1ccccc1Nc1nc(Nc2cc(C(N)=O)ccc2C#N)ncc1Cl [Compound I-196, 3-((5-chloro-4-((2-(N-methylacrylamido)phenyl)amino)pyrimidin-2-yl)amino)-4-cyanobenzamide] | E (provided a mass modification of ≧70%)
C=CC(=O)Nc1ccccc1Nc1nc(Nc2cc(C(=O)NOCCO)ccc2C#N)ncc1Cl [Compound I-202, 3-((4-((2-acrylamidophenyl)amino)-5-chloropyrimidin-2-yl)amino)-4-cyano-N-(2-hydroxyethoxy)benzamide] | F (key: E: provided a mass modification of ≧70%; F: provided a mass modification of 31-69%; G: proived a mass modification ≦30%)
C=CC(=O)Nc1cc(F)ccc1Nc1nc(Nc2cc(C(N)=O)ccc2C#N)ncc1Cl [Compound I-207, 3-(4-(2-acrylamido-4-fluorophenylamino)-5-chloropyrimidin-2-ylamino)-4-cyanobenzamide] | E (provided a mass modification of ≧70%)
C=CC(=O)Nc1ccccc1Nc1nc(Nc2ccc(F)cc2C)ncc1Cl [Compound I-209, N-(2-((5-chloro-2-((4-fluoro-2-methylphenyl)amino)pyrimidin-4-yl)amino)phenyl)acrylamide] | F (provided a mass modification of 31-69%)
C=CC(=O)Nc1ccccc1Nc1nc(Nc2ccc(F)cc2OC)ncc1Cl [Compound I-210, N-(2-((5-chloro-2-((4-fluoro-2-methoxyphenyl)amino)pyrimidin-4-yl)amino)phenyl)acrylamide] | F (provided a mass modification of 31-69%)
C=CC(=O)Nc1cc(F)ccc1Nc1nc(Nc2ccc(F)cc2OC)ncc1Cl [Compound I-213, N-(2-((5-chloro-2-((4-fluoro-2-methoxyphenyl)amino)pyrimidin-4-yl)amino)-5-fluorophenyl)acrylamide] | E (provided a mass modification of ≧70%)
C=CC(=O)Nc1ccccc1Nc1nc(Nc2cc(C(N)=O)ccc2C(F)(F)F)ncc1Cl [Compound I-220, 3-((4-((2-acrylamidophenyl)amino)-5-chloropyrimidin-2-yl)amino)-4-(trifluoromethyl)benzamide] | E (key: E: provided a mass modification of ≧70%; F: provided a mass modification of 31-69%; G: proived a mass modification ≦30%)
C=CC(=O)Nc1ccccc1Nc1nc(Nc2cc(C(N)=O)ccc2C)ncc1C [Compound I-224, 3-(4-(2-acrylamidophenylamino)-5-methylpyrimidin-2-ylamino)-4-methyl benzamide] | E (provided a mass modification of ≧70%)
C=CC(=O)Nc1ccccc1Nc1nc(Nc2cc(C(=O)O)ccc2C)ncc1Cl [Compound I-225, 3-((4-((2-acrylamidophenyl)amino)-5-chloropyrimidin-2-yl)amino)-4-methylbenzoic acid] | F (provided a mass modification of 31-69%)
C#CC(=O)NCCCOc1cc(C)c(Nc2ncc(Cl)c(Nc3ccccc3NC(=O)C=C)n2)cc1C(N)=O [Compound I-227, 5-((4-((2-acrylamidophenyl)amino)-5-chloropyrimidin-2-yl)amino)-4-methyl-2-(3-propiolamidopropoxy)benzamide] | E (provided a mass modification of ≧70%)
C=CC(=O)Nc1cc(C)ccc1Nc1nc(Nc2ccnc(Cl)c2)ncc1Cl [Compound I-230, N-(2-((5-chloro-2-((2-chloropyridin-4-yl)amino)pyrimidin-4-yl)amino)-5-methylphenyl)acrylamide] | E (provided a mass modification of ≧70%)
C=CC(=O)Nc1ccccc1Nc1nc(Nc2cc(C(=O)NC)c(F)cc2C)ncc1Cl [Compound I-231, 5-((4-((2-acrylamidophenyl)amino)-5-chloropyrimidin-2-yl)amino)-2-fluoro-N,4-dimethylbenzamide] | E (provided a mass modification of ≧70%)
